Earlier results in patent US20080286234A1, “Method for treating demyelinating diseases” (priority 2007, published 2008).

Details: MS patients; for reduction in the rate of MS relapses / decrease in relapse rate: vs. placebo

Row | Substance | effect on exacerbations in clinical trials (clinical trials) | effect on new, gadolinium-enhanced brain lesions on MRI scans (clinical trials) | reduction in the rate of MS relapses / decrease in relapse rate | slowed the progression of disability (as measured by EDSS) [%]
1 | glatiramer acetate | reduce the number and severity of exacerbations | reduce the number of new, gadolinium-enhanced brain lesions | 30-35% | –
2 | natalizumab: monoclonal antibody against integrin-(4 used to treat multiple sclerosis and Crohn's disease | – | – | 67% | 42
